Test results reported in US7273951B2, “Polyhydroxy phenols and their use in binding p-selectin” (Astellas Pharma Inc., priority 2003, dated 2007).
Blank lines part the entries; values can stand above or below the compound they belong to.

Tests used:
[1] = biological target: T1, human P-selectin (Homo sapiens, UniProt P16109); experiment: Competition assay with biotin-PAA-Le^a-SO3H; settings: read-out: IC50, inhibition of biotin-PAA-Le^a-SO3 binding to human P-selectin
T1 construct: purchased R&D Systems Europe Ltd., Abingdon, United Kingdom
Experimental: (§1) Gallic acid (Acros, Geel, Belgium) was assayed for its ability to inhibit TM11-PO binding to human P-selectin. […] For competition studies, a 96 wells microtiter plate (high binding, flat bottom, Costar, Corning, U.S.A.) was coated overnight at 4° C. with 10 μg/ml goat anti-human IgG (Fc specific) (Sigma-Aldrich, Zwijndrecht, the Netherlands) in coating buffer (50 mM NaHCO3, pH 9.6). Subsequently, wells were washed with assay buffer and incubated for 1 hour at 37° C. with blocking buffer (3% BSA in assay buffer). After washing with assay buffer, the wells were incubated for 2 hours at 37° C. with the human P-selectin IgG-Fc chimera (R&D Systems Europe Ltd., Abingdon, United Kingdom) (0.3 μg/ml). Subsequently, wells were washed with assay buffer and incubated for 1 hour at 4° C. with the TM11-PO complex. The wells were washed six times with washing buffer (0.1% Tween 20 in assay buffer). […] (TMB)/hydrogen peroxide (H2O2) (Pierce, Rochford, U.S.A.) was added and wells were incubated at room temperature for 15 minutes. The reaction was halted by addition of 2 M H2SO4 and the absorbance was measured at 450 nm.
(§2) To be able to test gallic acid binding also to other members of the selectin family (i.e. E- and L-selectin), biotin-PAA-Le^a-SO3H (Synthesone, Munich, Germany) instead of TM11-PO was used as ligand in the competition assay. This polyacrylamide (PAA) based polymer with attached sulfo-Lewis A groups, is an established selectin ligand.
(§3) Experimentally, the same procedure was used as in example 7 however with the following differences. After washing with assay buffer, the wells were incubated for 2 hours at 37° C. with the human P-selectin IgG-Fc chimera, mouse P-selectin IgG-Fc chimera, human L-selectin IgG-Fc chimera and human E-selectin IgG-Fc chimera respectively (all from R&D Systems Europe Ltd., Abingdon, United Kingdom) (0.3 μg/ml). Subsequently the wells of the microtiter plate were incubated with biotin-PAA-Le^a-SO3H (0.33 μg/ml) for 2 hours at 37° C., instead of with the TM11-PO-complex.

[2] = biological target: T1, human P-selectin; experiment: Competition assay of gallic acid with TM11-PO; format: binding
Experimental: as §1

[3] = biological target: T2, human E-selectin (Homo sapiens, UniProt P16581); experiment: Competition assay with biotin-PAA-Le^a-SO3H; format: binding; settings: concentrations up to 1 mM; biotin-PAA-Le^a-SO3H ligand
T2 construct: purchased R&D Systems Europe Ltd., Abingdon, United Kingdom
Experimental: as §1, §2, §3

[4] = biological target: T3, human L-selectin (Homo sapiens, UniProt P14151); experiment: Competition assay with biotin-PAA-Le^a-SO3H; format: binding
T3 construct: purchased R&D Systems Europe Ltd., Abingdon, United Kingdom
Experimental: as §1, §2, §3

[5] = biological target: T4, mouse P-selectin (Mus musculus, UniProt Q01102); experiment: Competition assay with biotin-PAA-Le^a-SO3H; format: binding; settings: biotin-PAA-Le^a-SO3H ligand
T4 construct: purchased R&D Systems Europe Ltd., Abingdon, United Kingdom
Experimental: as §1, §2, §3

[6] = system: HL60 cells / human P-selectin expressing Chinese hamster ovary cells (CHO-P); experiment: Dynamic interactions between HL60 cells and CHO-P monolayers in parallel-plate perfusion chamber; format: cell-based
Experimental: Chinese hamster ovary (CHO) cells stably transfected with human P-selectin (CHO—P) were kindly donated by Dr. Modderman (University of Amsterdam, Amsterdam, the Netherlands). Cells were grown in DMEM (BioWhittaker Europe, Verviers, Belgium) containing 10% foetal calf serum (FCS) (BioWitthaker), 5 mM L-glutamine, 20,000 units penicillin/streptomycin (BioWhittaker) and 5 mM non-essential amino acids (Gibco, Paisley, United Kingdom). Flasks with cells were incubated at 37° C. in 5% CO2 for 3 or 4 days until cells had grown nearly confluent.
HL60 cells were from ATCC and grown in RPMI 1640 medium (BioWhittaker) with 10% FCS, 5 mM L-glutamine and 20,000 units penicillin/streptomycin.
Dynamic interactions between […], displaying a high expression of PSGL-1, the natural P-selectin ligand, and human P-selectin expressing Chinese hamster ovary cell (CHO—P cells) monolayers grown onto glass coverslips coated with 30 μg/ml collagen S (type I) (Roche Diagnosis, Brussels, Belgium) were analysed in a parallel-plate perfusion chamber with a method adapted from G. Theilmeier (Blood 1999, 94: 2725-2734). The coverslip constituted the bottom of the chamber and the actual chamber was formed by a 254-μm height silicon rubber gasket designed with a conically shaped flow path, thus resulting in a 3-fold increase of wall shear rate from the inlet of the chamber to the outlet. Calcein-AM labeled HL60 cells, suspended in RPMI (0.5×10^6/ml) were perfused at 37° C. and at a flow rate of 1 ml/min with an inverted syringe pump (Harvard Instruments, South Natick, Mass., U.S.A.). The flow chamber was mounted on the table platform of an inverted epifluorescence microscope (Diaphot; Nikon, Melville, N.Y., U.S.A.) coupled to a Cohu CCD video camera (COHU Inc, San Diego, Calif., U.S.A.) and HL60 cell translocation over CHO—P monolayers were measured at wall shear rates of 300 and 600 s-1. Gallic acid was added to HL60 cell suspensions 2 minutes before the onset of perfusion. To prevent oxidation, the gallic acid solution was prepared freshly. Real time movies of 12 seconds (10 images per second), recorded at predefined positions in the flow path corresponding to chosen wall shear rates were stored and digitised with a Scion LG3 frame grabber (Scion Corp, Frederick, Mich., U.S.A.). The average velocity of HL60 cells rolling over the CHO—P cells was calculated from the rolling distance of the HL60 cells in a 1 second timeframe, using the NIH Image program version 6.1. The number of adhered HL60 cells was counted from pictures taken during the same experiment.

[7] = system: leukocyte-platelet conjugates rolling over femoral vein endothelium; experiment: In vivo rolling/tumbling of leukocyte-platelet conjugates (rosettes) over femoral vein endothelium; design: species or system mice
Experimental: Human blood was collected on 1:6 acid-citrate-dextrose (ACD: 93 mM trisodium citrate, 7 mM citric acid, 140 mM dextrose, pH 6.5) and 1 μM tirofiban. Human platelet rich plasma (PRP) was prepared via centrifugation at 150 g for 15 min. Murine blood was collected on 20 μg/ml hirudin and was centrifuged at 800 g for 30 sec, immediately followed by a second centrifugation at 150 g for 5 min to prepare PRP. The isolated PRP (human or murine) was then mixed with two volumes of ACD and recentrifuged at 800 g for 5 min. Subsequently, washed platelets were resuspended in HEPES-Tyrode's buffer (5 mM HEPES, 137 mM NaCl, 2.7 mM KCl, 12 mM NaHCO3, 0.36 mM NaH2PO4, 1% (w/v) glucose, pH 7.3) containing 1% (v/v) human serum albumin (HAS) at 10^6 platelets/μl. They were then incubated for 20 min at 37° C. with 5 μM calcein-AM, an acetoxymethyl ester, fluorescent once cleaved by non-specific esterases inside the cell, with no detectable effect on platelet function in our perfusion studies. The platelet suspension was then centrifuged at 700 g for 25 min and fluorescent platelets were resuspended in HEPES-Tyrode's buffer, and murine platelets were injected as such in mice.
All animal experiments were reviewed and approved by the Institutional Review Board of the University of Leuven and were performed in compliance with the guidelines of the International Society on Thrombosis and Haemostasis (Giles AR). For the study of platelet-assisted leukocyte rolling over the endothelial surface of blood vessels in vivo, on-line video microscopy was performed in mice. […] mice (6-12 weeks old) were anesthetized with Nembutal (70 mg/kg) via i.p. injection, and the jugular vein was catheterized. The femoral vein was exposed and mice were positioned on the table of an inverted epifluorescent microscope, such that the blood circulation in the femoral vein could be visualized through a Cohu CCD video camera. Fluorescent-labeled murine platelets were then injected in the catheterized jugular vein (500×10^6 platelets in 200 μl) and baseline rolling was recorded for the labeled platelets. […] After 5 min, the collagen-induced rolling and tumbling of leukocyte-platelet conjugates was then recorded for 10 min. The number of rosettes rolling were counted and their average tumbling speed was calculated from the registered movies. To address the effect of gallic acid on rosette rolling, it was infused 5 min prior to collagen administration and the rosette rolling was analysed as in the controls. […] Tumbling rosettes were counted 10 min after the collagen injection, before and after gallic acid infusion of 0.75 to 7.5 mg/kg.h. […]

[8] = system: platelets; experiment: TRAP-induced platelet aggregation in platelet-rich plasma; format: cell-based, human; settings: for Maximal platelet aggregation: TRAP 6.5 μM, human PRP
Experimental: Freshly drawn venous blood from healthy volunteers was collected with an informed consent into 1/10 volume of 3.2% tri-sodium citrate (w/v). These donors denied to have taken aspirin or other platelet function inhibitors during the previous ten days. Platelet-rich plasma (PRP) was prepared by centrifugation (150 g, 15 min, 22° C.). PRP was adjusted to a final concentration of 200,000 platelets/μl with platelet-poor plasma (PPP), which was obtained after an additional centrifugation step of the remaining blood (1100 g, 15 min, 22° C.). PRP was left for 30 min at 37° C. to ensure a resting state of the platelets. Afterwards, PRP was incubated for 5 min with different concentrations of gallic acid, EGCG or solvent at 37° C. Samples were transferred to an aggregometer (Kordia BV, Leiden, The Netherlands) to determine platelet aggregation at a stirring speed of 900 r.p.m. Platelet aggregation was initiated after preincubation with different concentrations of GA or EGCG (0, 50, 250 and 500 μM) by the addition of thrombin receptor activating peptide (TRAP, 6.5 μM, 37° C.).

T1 sequence (P16109 with tags, fused parts or gaps limits assumed): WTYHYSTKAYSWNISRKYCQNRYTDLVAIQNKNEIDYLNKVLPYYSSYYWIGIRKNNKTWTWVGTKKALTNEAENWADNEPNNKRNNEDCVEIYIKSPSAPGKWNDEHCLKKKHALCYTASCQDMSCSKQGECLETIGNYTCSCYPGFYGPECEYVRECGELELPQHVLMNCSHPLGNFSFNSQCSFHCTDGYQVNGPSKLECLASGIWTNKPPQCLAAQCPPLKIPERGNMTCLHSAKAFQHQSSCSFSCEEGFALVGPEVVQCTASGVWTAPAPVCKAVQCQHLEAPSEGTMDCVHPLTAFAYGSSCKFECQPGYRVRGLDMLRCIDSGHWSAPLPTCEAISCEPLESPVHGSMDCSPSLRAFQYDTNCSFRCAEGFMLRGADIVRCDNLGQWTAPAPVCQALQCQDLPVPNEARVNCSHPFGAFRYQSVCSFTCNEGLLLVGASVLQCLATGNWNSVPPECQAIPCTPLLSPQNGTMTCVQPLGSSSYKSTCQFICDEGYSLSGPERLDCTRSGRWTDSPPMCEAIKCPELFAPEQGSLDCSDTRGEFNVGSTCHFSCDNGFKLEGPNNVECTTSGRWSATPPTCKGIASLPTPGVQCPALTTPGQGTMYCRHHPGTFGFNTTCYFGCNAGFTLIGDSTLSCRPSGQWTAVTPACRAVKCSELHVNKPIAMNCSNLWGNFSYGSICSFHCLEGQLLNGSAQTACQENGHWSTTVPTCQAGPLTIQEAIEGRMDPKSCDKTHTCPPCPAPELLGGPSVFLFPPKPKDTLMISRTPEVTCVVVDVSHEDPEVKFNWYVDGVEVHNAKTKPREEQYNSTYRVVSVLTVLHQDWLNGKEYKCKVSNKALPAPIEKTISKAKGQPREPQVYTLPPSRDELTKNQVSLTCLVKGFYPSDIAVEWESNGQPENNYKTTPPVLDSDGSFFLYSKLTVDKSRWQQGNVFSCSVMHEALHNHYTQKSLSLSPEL
T4 sequence (Q01102 with tags, fused parts or gaps limits assumed): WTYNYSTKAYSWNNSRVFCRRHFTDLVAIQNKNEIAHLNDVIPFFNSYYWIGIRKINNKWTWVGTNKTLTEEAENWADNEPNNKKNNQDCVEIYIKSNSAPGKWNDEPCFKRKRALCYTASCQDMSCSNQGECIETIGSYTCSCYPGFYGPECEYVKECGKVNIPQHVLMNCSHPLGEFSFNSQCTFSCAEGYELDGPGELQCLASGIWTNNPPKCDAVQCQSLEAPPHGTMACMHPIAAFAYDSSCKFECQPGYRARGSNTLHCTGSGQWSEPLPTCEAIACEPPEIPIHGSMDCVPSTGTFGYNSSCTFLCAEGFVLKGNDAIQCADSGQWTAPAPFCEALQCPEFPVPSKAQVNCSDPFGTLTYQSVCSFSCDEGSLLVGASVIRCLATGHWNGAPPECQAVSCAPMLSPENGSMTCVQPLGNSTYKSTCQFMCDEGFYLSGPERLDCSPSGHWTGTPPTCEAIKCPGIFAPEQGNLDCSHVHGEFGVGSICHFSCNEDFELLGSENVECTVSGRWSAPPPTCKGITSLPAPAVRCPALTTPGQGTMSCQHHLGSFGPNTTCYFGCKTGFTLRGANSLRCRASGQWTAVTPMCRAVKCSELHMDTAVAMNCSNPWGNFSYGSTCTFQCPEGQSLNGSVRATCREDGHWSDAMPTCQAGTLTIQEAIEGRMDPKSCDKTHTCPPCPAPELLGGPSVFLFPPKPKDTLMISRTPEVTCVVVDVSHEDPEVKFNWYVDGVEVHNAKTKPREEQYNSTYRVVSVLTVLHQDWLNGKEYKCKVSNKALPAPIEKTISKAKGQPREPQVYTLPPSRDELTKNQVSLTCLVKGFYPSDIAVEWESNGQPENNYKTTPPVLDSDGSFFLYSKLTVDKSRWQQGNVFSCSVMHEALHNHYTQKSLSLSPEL
T2 sequence (P16581 with tags, fused parts or gaps limits assumed): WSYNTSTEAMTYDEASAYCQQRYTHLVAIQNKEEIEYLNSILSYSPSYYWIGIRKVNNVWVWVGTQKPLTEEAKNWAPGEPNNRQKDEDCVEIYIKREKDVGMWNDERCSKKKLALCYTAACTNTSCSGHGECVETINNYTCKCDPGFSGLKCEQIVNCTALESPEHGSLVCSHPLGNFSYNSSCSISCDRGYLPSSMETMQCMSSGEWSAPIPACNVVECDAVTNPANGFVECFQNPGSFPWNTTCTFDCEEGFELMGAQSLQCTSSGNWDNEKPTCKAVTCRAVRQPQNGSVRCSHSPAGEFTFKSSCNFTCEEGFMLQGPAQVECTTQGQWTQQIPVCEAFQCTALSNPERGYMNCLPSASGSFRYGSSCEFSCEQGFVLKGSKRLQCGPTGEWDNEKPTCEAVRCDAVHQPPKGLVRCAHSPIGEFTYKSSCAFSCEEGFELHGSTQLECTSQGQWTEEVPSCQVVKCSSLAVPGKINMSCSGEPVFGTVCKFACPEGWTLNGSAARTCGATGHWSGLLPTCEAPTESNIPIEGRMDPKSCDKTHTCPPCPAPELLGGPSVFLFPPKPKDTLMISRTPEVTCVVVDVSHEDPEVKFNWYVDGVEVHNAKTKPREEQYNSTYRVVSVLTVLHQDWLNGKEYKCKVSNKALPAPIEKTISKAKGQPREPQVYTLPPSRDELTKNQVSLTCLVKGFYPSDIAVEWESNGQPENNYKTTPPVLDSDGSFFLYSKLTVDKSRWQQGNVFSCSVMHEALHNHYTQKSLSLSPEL
T3 sequence (P14151 with tags, fused parts or gaps limits assumed): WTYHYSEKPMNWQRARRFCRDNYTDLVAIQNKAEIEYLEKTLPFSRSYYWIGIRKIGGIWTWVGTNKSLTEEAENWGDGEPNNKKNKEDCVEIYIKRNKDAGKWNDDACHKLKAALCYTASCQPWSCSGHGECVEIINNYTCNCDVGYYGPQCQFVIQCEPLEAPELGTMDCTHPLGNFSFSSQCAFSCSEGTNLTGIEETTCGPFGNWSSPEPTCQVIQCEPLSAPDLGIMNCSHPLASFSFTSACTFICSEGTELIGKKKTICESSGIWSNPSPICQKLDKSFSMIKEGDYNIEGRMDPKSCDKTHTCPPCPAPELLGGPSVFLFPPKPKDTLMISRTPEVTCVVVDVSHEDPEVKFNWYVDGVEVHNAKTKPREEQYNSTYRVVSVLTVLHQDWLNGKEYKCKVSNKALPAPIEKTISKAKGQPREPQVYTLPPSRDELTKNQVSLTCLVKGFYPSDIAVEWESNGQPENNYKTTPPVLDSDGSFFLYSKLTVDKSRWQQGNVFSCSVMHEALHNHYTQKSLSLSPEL

IC50 [1]: > 300 µM
Compound: O=C(O)c1ccc(O)cc1 [4-hydroxy benzoic acid]

IC50 [1]: > 300 µM
Compound: O=C(O)/C=C/c1ccc(O)c(O)c1 [caffeic acid]

Compound: O=C(O)c1cc(O)c(O)c(O)c1 [gallic acid, 3,4,5-trihydroxybenzoic acid]
IC50 [2]: 7.2 µM
IC50 [1]: ~85 µM
Inhibition of E-selectin binding [3]: less than 20%
IC50 [4]: 241 µM
Binding to P-selectin, mouse versus human [5]: species-independent
Change of HL60 cell adhesion to CHO-P monolayer vs untreated control ([6]; 50 μM, wall shear rate 300 s^-1): −34%
Change of HL60 cell adhesion to CHO-P monolayer vs untreated control ([6]; 50 μM, wall shear rate 600 s^-1): −43%
Change of HL60 cell adhesion to CHO-P monolayer vs untreated control ([6]; 250 μM, wall shear rate 300 s^-1): −41%
Change of HL60 cell adhesion to CHO-P monolayer vs untreated control ([6]; 250 μM, wall shear rate 600 s^-1): −54%
Rolling velocity of HL60 cells across CHO-P monolayer ([6]; 50 and 250 μM): doubled
Conjugate rolling over femoral vein endothelium, number of conjugates rolling per unit of surface ([7]; C57/B16 mice (WT), FIG. 8A): Dose-dependent inhibition
Rolling of preformed leukocyte-platelet conjugates, percentage of rolling in absence of gallic acid ([7]; aged atherosclerotic ApoE-/- mice, FIG. 8B): Inhibition
Effective plasma concentration corresponding to ED50 ([7]; mice, at ED50 of rosette tumbling): 40 µM
ED50, dose giving half maximal inhibition of rosette tumbling ([7]; mice, infusion 0.75 to 7.5 mg/kg.h, counted 10 min after collagen injection): 1.5±0.4 mg/kg.h
Maximal platelet aggregation ([8]; 250 μM): no significant inhibition
Maximal platelet aggregation ([8]; 500 μM): inhibit platelet aggregation significantly

IC50 [1]: > 300 µM
Platelet lysis ([8]; human platelets, not usable in aggregation test): causes platelet lysis
Compound: CCCCCCCCCCCCOC(=O)c1cc(O)c(O)c(O)c1 [n-dodecyl gallate]

Compound: (−)-epigallocatechin gallate [EGCG]
IC50 [1]: 114 µM
Maximal platelet aggregation ([8]; 250 μM): no significant inhibition
Maximal platelet aggregation ([8]; 500 μM): inhibit platelet aggregation significantly
